Values quoted from earlier work, collected in patent US6495173B1, “Compositions and methods for reducing or controlling blood cholesterol, lipoproteins, triglycerides and atherosclerosis” (priority 2000, dated 2002).
Values belong to the molecule of their own block, whether it stands above or below them.

How the values were obtained:
[1] = 75 mg to 600 mg/day, eight years
[2] = 100 mg per day for 30 days
[3] = in vivo
[4] = human, in vivo
[5] = mean dose of 2,250 mg/day
[6] = large doses (3 to 6 g/day)
[7] = rats
[8] = 500 mcg BID, after 2 and 4 months
[9] = supplement users versus non-users

- Coenzyme Q10 levels in all three LDL subfractions ([2]; P<0.01): increased
Molecule: COC1=C(OC)C(=O)C(C/C=C(\C)CC/C=C(\C)CC/C=C(\C)CC/C=C(\C)CC/C=C(\C)CC/C=C(\C)CC/C=C(\C)CC/C=C(\C)CC/C=C(\C)CCC=C(C)C)=C(C)C1=O [Coenzyme Q10]
- decreased dependency on drugs [1]: 43%
- improvements in myocardial function [1]: 58%
- hydroperoxide levels in the LDL3 subfraction [2]: significant decrease

- increased liver transaminase levels, share of subjects [3]: 2%
- myopathy with a creatine kinase greater than 10 times normal, share of subjects [3]: 0.5%
- required discontinuation, share of those treated [3]: 9%
Molecule: CC[C@H](C)C(=O)O[C@H]1C[C@@H](C)C=C2C=C[C@H](C)[C@H](CC[C@@H]3C[C@@H](O)CC(=O)O3)[C@H]21 [Lovastatin, lovastatin]
- decrease in levels of LDL [4]: 32.4%
- decrease in levels of VLDL [4]: 53%

Molecule: O=C(O)c1cccnc1 [Nicotinic acid]
- increase in levels of HDL-cholesterol [5]: 35%
- increase in HDL [6]: ≤ 30 mg/dL

Molecule: CC(C)(C)c1cc(O)ccc1O [TBHQ, tert-butylhydroquinone]
- blood cholesterol and triglycerides [7]: reduce

Molecule: [Cr] [chromium]
- blood sugar and cholesterol versus placebo group [8]: lower

Molecule: chromium picolinate
- triglyceride level (supplementation for 2 months (vs. 161)): 133 mg/dL
- reduction in triglyceride levels (supplementation for 2 months, P<0.05): 17.4%

Molecule: vitamin E
- absolute risk reduction [9]: 3.4 women per 10,000 woman-years
- reduction in relative risk for non-fatal myocardial infarction and death from cardiovascular disease ([9]; average 8 years follow-up, adjusted): 31%
